# Tested on: MCF-7 cells
# Assay: In vitro growth inhibitory potency of anti-estrogen activity in MCF-7 cells
# Type: cell-based, human
# Conditions: Homo sapiens, MCF7, 168 h; in the presence of E2, 7 days, Cell Titre Glo
# Procedure: In Vitro Growth Inhibitory Potency of Anti-Estrogen Activity in MCF-7 Cells:
# The estrogen receptor α (ERα) high expression human breast cancer MCF-7 cells (#HTB-22, A.T.C.C.) were cultured in DMEM medium supplemented by 10% fetal bovine serum (Gibco®) and 10 μg/ml bovine insulin (Sigma®). The cells were maintained in 75 cm^2 cell culture flask (Corning®) filled with 15 ml medium, 95% air and 5% CO2. Cells were split twice a week in a single layer cell culture.
# For experiments related to 17β-Estradiol (E2), cells at logarithm growing stage were pretreated for two days without E2, the phenol red DMEM medium was replaced by the phenol red free DMEM/F12 medium, and FBS was replaced by 10% charcoal stripped FBS to remove the steroid and greatly decrease the hormone levels. Cells were seeded in 96 well cell culture plates (Corning®) with 4×10^3/well density, cultured in E2 free DMEM/F12 medium at 37° C. for 24 hours, 95% air and 5% CO2. All the compounds were stocked in DMSO as 0.01 M, serial diluted by the culture medium and added to the cells in the presence of proper E2 concentration. The final concentrations of compounds and DMSO were 3×10^−10˜1×10^−5 M and 0.1%. Cells were incubated at 37° C. for 7 days, medium containing E2 and compounds were changed every two days to maintain the chemical activity.
# 7 Days later, the viable cell numbers were calculated by the ATP amount from the luciferase quantity measurement (Cell Titre Glo® luciferase kit, Promega®). This method can be used to evaluate the stimulating estrogenicity of estrogen dependent cell growth under the condition of E2 free. The estrogenicity was tested by percentage compared to the maximum growth stimulation (100%) by E2. In this study, the percentage antagonist effects were evaluated by compared to the complete inhibition (100%) at the dose of 1×10^−5 M. The inhibition curves were generated by the reading numbers with the program Prism® 5, IC50 values were calculated.
row,SMILES,IC50 [nM]
1,CCC(=C(c1ccc(O)cc1)c1ccn(CCCN(C)C)c(=O)c1)c1ccccc1,< 500
2,CCC(=C(c1ccc(O)cc1)c1ccc(OCCN2CCCC2)cc1)c1ccc2oc(Cl)cc2c1,< 100
3,CCC(=C(c1ccc(O)cc1)c1ccc(OCCN2CCNCC2)cc1)c1ccc2oc(Cl)cc2c1,< 100
4,CC/C(=C(\c1ccc(OC)cc1)c1ccc(OCCNC)cc1)c1ccc2oc(Cl)cc2c1,< 500
5,CCNCCOc1ccc(C(=C(CC)c2ccc3oc(Cl)cc3c2)c2ccc(O)cc2)cc1,< 100
6,CCC(=C(c1ccc(O)cc1)c1ccc(OCCN2CCOCC2)cc1)c1ccc2oc(Cl)cc2c1,< 100
7,CCC(=C(c1ccc(O)cc1)c1ccc(OCCN2CCN(C)CC2)cc1)c1ccc2oc(Cl)cc2c1,< 100
8,CC/C(=C(/c1ccc(O)cc1)c1ccc(OCCNC)cc1)c1ccc2[nH]ncc2c1,< 100
9,CCC(=C(c1ccc(OCCNC)cc1)c1ccc(O)c(F)c1)c1ccccc1,< 100
10,CCC(=C(c1ccc(O)cc1)c1ccc(CCCN2CCCC2)nc1)c1ccc2oc(Cl)cc2c1,< 100
11,CCC(=C(c1ccc(O)cc1)c1ccc(CCCN(C)C)nc1)c1ccccc1,< 100
12,CC/C(=C(\c1ccc(O)cc1)c1ccc(OCCN2CCCC2)nc1)c1ccccc1,< 100
13,CCC(=C(c1ccc(O)cc1)c1ccc(OCCNC)cc1)c1ccsc1,< 100
14,CC/C(=C(\c1ccc(O)cc1)c1ccc(OCCNC)cc1)c1ccc(O)c(F)c1,< 500
15,CCC(=C(c1ccc(O)cc1)c1ccc(CCCNC)cc1)c1ccccc1,< 100
16,CC/C(=C(\c1ccc(O)cc1)c1ccc(OCCN(C)C)nc1)c1ccccc1,< 100
17,CCC(=C(c1ccc(O)cc1)c1ccc(OCCNC)cc1)c1ccc2oc(Cl)cc2c1 [drawing 331],< 100
18,CCC(=C(c1ccc(O)cc1)c1ccc(CCCN2CCCC2)cc1)c1ccccc1,< 100
19,CCC(=C(c1ccc(O)cc1)c1ccc(OCCNC)cc1)c1ccc2nsnc2c1,< 100

row,SMILES,IC50 [nM]
1,CC/C(=C(/c1ccc(O)cc1)c1ccc(OCCNC)cc1)c1ccc2oc(Cl)cc2c1,< 100
2,CCC(=C(c1ccc(O)cc1)c1ccc(OCCNC)cc1)c1ccc2occc2c1,< 100
3,CCC(=C(c1ccc(O)cc1)c1ccc(OCCNC)c(F)c1)c1ccc2c(c1)CCO2,< 100
4,CC/C(=C(\c1ccc(O)cc1)c1ccc(OCCN2CCN(C)CC2)nc1)c1ccccc1,< 100
5,CCC(=C(c1ccc(O)cc1)c1ccc(N(C)CCNC)nc1)c1ccc2oc(Cl)cc2c1,< 100
6,CCC(=C(c1ccc(O)cc1)c1ccc(OCCNC)c(Br)c1)c1ccccc1,< 100
7,CCC(=C(c1ccc(O)cc1)c1ccc(OCCNC)cc1)C1CCC(O)CC1 (centres unmarked),< 500
8,CCC(=C(c1ccc(O)cc1)c1ccc(OCCN2CCCCC2)cc1)c1ccc2oc(Cl)cc2c1,< 100
9,CCC(=C(c1ccc(O)cc1)c1ccc(C#CCN2CCCC2)c(F)c1)c1ccccc1,< 100
10,CCC(=C(c1ccc(O)cc1)c1ccc(OCC2CCCN2C)cc1)c1ccccc1 (centres unmarked),< 100
11,CCC(=C(c1ccc(O)cc1)c1ccc(OCCNC)cc1)c1ccc2c(c1)CCO2,< 100
12,CCC(=C(c1ccc(O)cc1)c1ccc(OC2CCNC2)cc1)c1ccccc1 (centres unmarked),< 100
13,CC/C(=C(\c1ccc(O)cc1)c1ccc(OCCNC)cc1)c1ccc2[nH]ncc2c1,< 100
14,CCC(=C(c1ccc(O)cc1)c1ccc(SCCNC)nc1)c1ccc2oc(Cl)cc2c1,< 100
15,CC/C(=C(/c1ccc(O)cc1)c1ccc(OCCNC)cc1)c1ccc(O)c(F)c1,< 500
16,CC/C(=C(/c1ccc(O)cc1)c1ccc(OCCNC)nc1)c1ccccc1,< 100
17,CC/C(=C(\c1ccc(O)cc1)c1ccc(OCCN2CCCCC2)nc1)c1ccccc1,< 100
18,CCC(=C(c1ccc(O)cc1)c1ccc(OCCN(C)C)cn1)c1ccccc1,< 500
19,CCC(=C(c1ccc(O)cc1)c1ccc(OCCN(C)C)cc1)c1ccc2oc(Cl)cc2c1,< 100

row,SMILES,IC50 [nM]
1,CCC(=C(c1ccc(O)cc1)c1ccc(OCCN2CCCCCC2)cc1)c1ccc2oc(Cl)cc2c1,< 100
2,CCC(=C(c1ccc(O)cc1)c1ccc(CCCN2CCCC2)nc1)c1ccccc1,< 100
3,CCC(=C(c1ccc(O)cc1)c1ccc(CCCNC)nc1)c1ccccc1,< 100
4,CCC(=C(c1ccc(O)cc1)c1ccc(OCCNC)nc1)c1ccc2oc(Cl)cc2c1,< 100
5,CNCCOc1ccc(C(=C(CCCl)c2ccc3c(c2)CCO3)c2ccc(O)cc2)cc1,< 100
6,CC/C(=C(\c1ccc(O)cc1)c1ccc(SCCNC)nc1)c1ccccc1,< 100
7,CC/C(=C(\c1ccc(O)cc1)c1ccc(OCCN2CCOCC2)nc1)c1ccccc1 [drawing 318],< 100
8,CC/C(=C(/c1ccc(O)cc1)c1ccc(N(C)CCNC)nc1)c1ccccc1,< 100
9,CC/C(=C(\c1ccc(O)cc1)c1ccc(OC2CCNC2)nc1)c1ccccc1 (centres unmarked),< 100
10,CCC(=C(c1ccc(O)cc1)c1ccc(OCCNC)nc1)c1ccc2c(c1)CCO2,< 100
11,CC/C(=C(/c1ccc(O)cc1)c1ccc(OCCNC)cc1)c1csc(Cl)c1,< 500
12,CCC(=C(c1ccc(O)cc1)c1ccc(OC[C@@H]2CCCN2)cc1)c1ccccc1,< 100
13,CC/C(=C(\c1ccc(O)cc1)c1ccc(OCCNC)cc1)C1CCC(=O)CC1,< 100
14,CC/C(=C(\c1ccc(O)cc1)c1ccc(OCCNC)nc1)c1ccccc1,< 100
15,CCC(=C(c1ccc(O)cc1)c1ccc(OCCN(CC)CC)cc1)c1ccc2oc(Cl)cc2c1,< 100
16,CCC(=C(c1ccc(O)cc1)c1ccc(OCCNC)cc1)c1ccc(O)c(OC)c1,< 500
17,CCC(=C(c1ccc(O)cc1)c1ccc(OCCNC)c(F)c1)c1ccccc1,< 100
18,CCC(=C(c1ccc(O)cc1)c1ccc(O[C@@H]2CCNC2)cc1)c1ccccc1,< 100

# Same assay, conditions: in the presence of E2, 7 days, Cell Titre Glo
row,SMILES,IC50 [nM]
1,CCC(=C(c1ccc(O)cc1)c1ccc(OCCNC)cc1)c1ccc2oc(Cl)cc2c1 [drawing 303],< 100

# Tested on: MCF-7
# Assay: Anti-tumor (MCF-7) test in nude mice
# Type: in vivo
# Conditions: 10 mg/kg PO, QD
# Procedure: (§1) As shown in FIGURE and the table below, 21 days after the nude mouse was administered with Tamoxifen (20 mg/kg), the weight dropped by 20%, and a higher dose of 30 mg/kg of an exemplary compound of the present application, shown below as CT-946-01, led to a weight gain of 7%.
row,SMILES,TGI (%) 21 days [%]
1,CC/C(=C(\c1ccc(O)cc1)c1ccc(OCCN2CCOCC2)nc1)c1ccccc1 [CT-946-01],108

# Same assay, conditions: 20 mg/kg PO, QD
row,SMILES,TGI (%) 21 days [%]
1,"CC/C(=C(\c1ccccc1)c1ccc(OCCN(C)C)cc1)c1ccccc1 [Tamoxifen, reference compound]",22.4

# Same assay, conditions: 30 mg/kg PO, QD
row,SMILES,TGI (%) 21 days [%]
1,CC/C(=C(\c1ccc(O)cc1)c1ccc(OCCN2CCOCC2)nc1)c1ccccc1 [CT-946-01],104

# Tested on: not listed separately
# Assay: Weight change of nude mice during anti-tumor (MCF-7) test (toxicity)
# Type: in vivo
# Conditions: 10 mg/kg PO, QD; nude mice
# Procedure: as §1
row,SMILES,BW (% of vehicle)
1,CC/C(=C(\c1ccc(O)cc1)c1ccc(OCCN2CCOCC2)nc1)c1ccccc1 [CT-946-01],104 % of vehicle

# Same assay, conditions: 20 mg/kg PO, QD; nude mice
row,SMILES,BW (% of vehicle)
1,"CC/C(=C(\c1ccccc1)c1ccc(OCCN(C)C)cc1)c1ccccc1 [Tamoxifen, reference compound]",80.0 % of vehicle

# Same assay, conditions: 20 mg/kg; 21 days after administration; nude mouse
row,SMILES,weight dropped [%]
1,"CC/C(=C(\c1ccccc1)c1ccc(OCCN(C)C)cc1)c1ccccc1 [Tamoxifen, reference compound]",20

# Same assay, conditions: 30 mg/kg PO, QD; nude mice
row,SMILES,BW (% of vehicle)
1,CC/C(=C(\c1ccc(O)cc1)c1ccc(OCCN2CCOCC2)nc1)c1ccccc1 [CT-946-01],107 % of vehicle

# Same assay, conditions: 30 mg/kg; 21 days after administration; nude mouse
row,SMILES,weight gain [%]
1,CC/C(=C(\c1ccc(O)cc1)c1ccc(OCCN2CCOCC2)nc1)c1ccccc1 [CT-946-01],7
